Measurements taken from PubChem BioAssay (NCI).
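Growth conditions: 96-well plates. Treatment: test compound, 48 hours, 5 concentrations. Analysis: linear interpolation between bracketing concentrations; unreached endpoints set to highest concentration. GI50 marks 50% less growth. Definition used: TGI = concentration required for complete inhibition of growth.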

Legend:
Assay in all cases: NCI-60 cell line screen, 48 h
[1] = test system: TK-10 renal
[2] = test system: LOX IMVI melanoma
[3] = test system: SF-268 CNS
[4] = test system: ACHN renal
[5] = test system: SK-MEL-2 melanoma
[6] = test system: COLO 205 colon
[7] = test system: A549 NSCLC
[8] = test system: PC-3 prostate
[9] = test system: HCT-15 colon
[10] = test system: HCT-116 colon
[11] = test system: HCC-2998 colon
[12] = test system: IGROV1 ovarian
[13] = test system: SNB-75 CNS
[14] = test system: SN12C renal
[15] = test system: SNB-19 CNS
[16] = test system: U251 CNS
[17] = test system: SF-295 CNS
[18] = test system: HL-60(TB) leukemia
[19] = test system: KM12 colon
[20] = test system: UACC-62 melanoma
[21] = test system: HS 578T breast
[22] = test system: K-562 leukemia
[23] = test system: NCI-H226 lung
[24] = test system: MDA-MB-231 breast
[25] = test system: MCF7 breast
[26] = test system: OVCAR-8 ovarian
[27] = test system: OVCAR-4 ovarian
[28] = test system: UACC-257 melanoma
[29] = test system: MALME-3M melanoma
[30] = test system: UO-31 renal
[31] = test system: NCI-H460 lung
[32] = test system: NCI-H522 lung
[33] = test system: A498 renal
[34] = test system: SW-620 colon
[35] = test system: RXF 393 renal
[36] = test system: OVCAR-3 ovarian
[37] = test system: HT29 colon
[38] = test system: M14 melanoma
[39] = test system: CCRF-CEM leukemia
[40] = test system: 786-0 renal
[41] = test system: OVCAR-5 ovarian
[42] = test system: NCI/ADR-RES ovarian
[43] = test system: SR leukemia
[44] = test system: EKVX NSCLC
[45] = test system: SF-539 CNS
[46] = test system: BT-549 breast
[47] = test system: MOLT-4 leukemia
[48] = test system: HOP-62 NSCLC
[49] = test system: SK-MEL-28 melanoma
[50] = test system: NCI-H23 lung
[51] = test system: MDA-MB-435
[52] = test system: RPMI-8226 leukemia
[53] = test system: SK-OV-3 ovarian
[54] = test system: T-47D breast
[55] = test system: HOP-92 NSCLC
[56] = test system: DU-145 prostate
[57] = test system: CAKI-1 renal
[58] = test system: SK-MEL-5 melanoma

Structure (SMILES): O=C1C(=O)c2ccccc2C(O)=C1CCCc1ccc(C2CCCCCC2)cc1
- GI50 [1]: 3.14 µM
- TGI [1]: 57 µM
- GI50 [2]: 0.322 µM
- TGI [2]: 10.5 µM
- GI50 [3]: 0.625 µM
- TGI [3]: 26.7 µM
- GI50 [4]: 0.703 µM
- TGI [4]: > 100 µM
- GI50 [5]: 1.12 µM
- TGI [5]: 21.4 µM
- GI50 [6]: 4.9 µM
- TGI [6]: 20 µM
- GI50 [7]: 0.664 µM
- TGI [7]: 17.4 µM
- GI50 [8]: 0.542 µM
- TGI [8]: > 42.4 µM
- GI50 [9]: 0.539 µM
- TGI [9]: > 85.9 µM
- GI50 [10]: 0.426 µM
- TGI [10]: 13.3 µM
- GI50 [11]: 0.863 µM
- TGI [11]: 22.7 µM
- GI50 [12]: 0.486 µM
- TGI [12]: 5.89 µM
- GI50 [13]: 2.5 µM
- TGI [13]: 52.2 µM
- GI50 [14]: 2.12 µM
- TGI [14]: > 100 µM
- GI50 [15]: 0.803 µM
- TGI [15]: > 100 µM
- GI50 [16]: 0.687 µM
- TGI [16]: 25.3 µM
- GI50 [17]: 0.558 µM
- TGI [17]: 30.2 µM
- GI50 [18]: 0.698 µM
- TGI [18]: 11.1 µM
- GI50 [19]: 0.903 µM
- TGI [19]: 17.2 µM
- GI50 [20]: 0.718 µM
- TGI [20]: 21.2 µM
- GI50 [21]: 4.84 µM
- TGI [21]: 57.8 µM
- GI50 [22]: 0.447 µM
- TGI [22]: > 34.8 µM
- GI50 [23]: 2.2 µM
- TGI [23]: 31.7 µM
- GI50 [24]: 5.76 µM
- TGI [24]: 42.2 µM
- GI50 [25]: 0.513 µM
- TGI [25]: > 49 µM
- GI50 [26]: 1.62 µM
- TGI [26]: 41.7 µM
- GI50 [27]: 1.02 µM
- TGI [27]: > 100 µM
- GI50 [28]: 0.662 µM
- TGI [28]: > 23.3 µM
- GI50 [29]: 0.816 µM
- TGI [29]: 22.6 µM
- GI50 [30]: 0.612 µM
- TGI [30]: 8.94 µM
- GI50 [31]: 0.361 µM
- TGI [31]: 13.4 µM
- GI50 [32]: 2.64 µM
- TGI [32]: 32.7 µM
- GI50 [33]: 0.349 µM
- TGI [33]: 13.1 µM
- GI50 [34]: 0.576 µM
- TGI [34]: 33.2 µM
- GI50 [35]: 10.2 µM
- TGI [35]: 41.7 µM
- GI50 [36]: 0.781 µM
- TGI [36]: 16.3 µM
- GI50 [37]: 4.6 µM
- TGI [37]: 27.8 µM
- GI50 [38]: 1.86 µM
- TGI [38]: 21 µM
- GI50 [39]: 1.16 µM
- TGI [39]: > 100 µM
- GI50 [40]: 0.465 µM
- TGI [40]: 17 µM
- GI50 [41]: 19.8 µM
- TGI [41]: > 100 µM
- GI50 [42]: 0.702 µM
- TGI [42]: 11.9 µM
- GI50 [43]: 1.77 µM
- TGI [43]: > 100 µM
- GI50 [44]: 0.939 µM
- TGI [44]: 50.6 µM
- GI50 [45]: 2.56 µM
- TGI [45]: > 74.7 µM
- GI50 [46]: 1.14 µM
- TGI [46]: 19.5 µM
- GI50 [47]: 0.618 µM
- TGI [47]: > 32.1 µM
- GI50 [48]: 1.27 µM
- TGI [48]: 27.3 µM
- GI50 [49]: 5.04 µM
- TGI [49]: > 93.3 µM
- GI50 [50]: 0.649 µM
- TGI [50]: 15.8 µM
- GI50 [51]: 0.608 µM
- TGI [51]: 48.2 µM
- GI50 [52]: 0.463 µM
- TGI [52]: 13.9 µM
- GI50 [53]: 2.85 µM
- TGI [53]: 54.6 µM
- GI50 [54]: 3.46 µM
- TGI [54]: > 45.8 µM
- GI50 [55]: 3.01 µM
- TGI [55]: 24.9 µM
- GI50 [56]: 0.72 µM
- TGI [56]: 34.3 µM
- GI50 [57]: 0.432 µM
- TGI [57]: 26 µM
- GI50 [58]: 0.445 µM
- TGI [58]: 11.5 µM
